System: 885512-296-R-J2-PDC complex spheroid growth, % test/control
Test: Anticancer human tumor 885512-296-R-J2-PDC patient-derived breast carcinoma cell line growth inhibition [AhR]
Details: for IC50: curve of first compound; for viability, T/C: stronger effect = lower value
From the text: Multicellular complex tumor spheroid response to aryl hydrocarbon receptor antagonists in combination with a variety of drugs and investigational agents in selected tumor cell lines
The current study was undertaken to assess response to aryl hydrocarbon receptor antagonists in combination with standard-of-care drugs and investigational agents in solid tumor complex spheroid models. Complex spheroids include a stromal component modeled by human endothelial cells (HUVEC) and fibroblasts modeled by human mesenchymal stem cells (MSCs). The concentration ranges selected for each drug and investigational agent were based upon clinically achievable concentrations if the clinical Cmax of the agent was known.
Compounds. The drugs and investigational agents: BAY 2416964 (NSC825713), GNF351 (NSC835774), CH-223191 (NSC835775), CPI-455 (NSC825282), aza-TdCyd (NSC777586), decitabine (NSC127716), belinostat (NSC758774), entinostat (NSC756642), pevonedistat (NSC761192), tazemetostat (NSC777109), talazoparib (NSC765396), olaparib (NSC753686), selinexor (NSC780203), nedisertib (M3814, NSC802822), bortezomib (NSC756655), venetoclax (NSC766270), doxorubicin (NSC123127), elimusertib (BAY189344, NSC800525), ceralasertib (AZD6738, NSC777638), TAK-243 (NSC785004), alisertib (NSC759677), etoposide (NSC141540), topotecan (NSC609699), eribulin (NSC707389), gemcitabine (NSC613327), carboplatin (NSC241240), cisplatin (NSC119875), and SN-38 (NSC673596) were obtained from the National Cancer Institute (NCI) Developmental Therapeutics Program Chemical Repository (32). The FDA-approved anticancer drug set is available from the Developmental Therapeutics Program at https://dtp.cancer.gov/organization/dscb/obtaining/available plates.htm. […] The stock solutions were prepared in dimethyl sulfoxide (DMSO, Sigma-Aldrich, St. Louis, MO, cat. D2650), except for the platinum compounds which were prepared in saline (Quality Biological, Gaithersburg, MD, cat. 114-055-101), at 800-fold the tested concentration and stored at -70 degrees C prior to their use. All drugs and investigational agents were tested over a range starting from a high concentration at or near the clinical Cmax and decreasing in half-log increments. If the clinical Cmax for an agent had not been determined, the highest concentration tested was 10 microM (Table 1).
Cell Culture. All cells were maintained in an incubator at 37 degrees C and 5% CO2 with 95% humidity. The PDC lines were cultured according to standard operating procedures established by the NCI PDMR (https://pdmr.cancer.gov). Briefly, all PDCs were thawed and cultured in Matrigel-coated flasks prepared with a working solution of 1X Ham's F-12 nutrient mix, without supplementation (Invitrogen, Waltham, MA, cat. 11765054), 100 U/mL penicillin-streptomycin (Invitrogen, cat. 15140122), and 2.5% Matrigel (Corning Inc., Corning, NY, cat. 354248) for the first three passages. All PDCs were cultured in complete DMEM/F-12 media containing advanced DMEM/F-12 (Invitrogen, cat. 12634028), 4.9% defined fetal bovine serum, heat inactivated (HyClone Laboratories Inc., Logan, UT, cat. SH30070.03HI), 389 ng/mL hydrocortisone (Sigma-Aldrich, cat. H4001), 9.7 ng/mL human EGF recombinant protein (Invitrogen, cat. PHG0313), 23.4 microg/mL adenine (Sigma-Aldrich, cat. A2786), 97.3 U/mL penicillin-streptomycin (Invitrogen, cat. 15140122), 1.9 mM L-glutamine (Invitrogen, cat. 25030081), and 9.7 microM Y-27632 dihydrochloride (Tocris Bioscience, Bristol, United Kingdom, cat. 1254). The PDCs were cultured in complete DMEM/F12 media without 10 microM Y-27632 dihydrochloride for at least two passages prior to the screen. The established cell lines NCI-H1341 and […] were cultured in DMEM/F-12, HEPES (Invitrogen, cat. 11330032), 5% defined fetal bovine serum (HyClone Laboratories Inc., cat. SH30070.03), ITS premix universal culture supplement [insulin (5 microg/mL), transferrin (5 microg/mL), and selenious acid (5 ng/mL)] […]

[1] = second compound 0.1 µM, first compound 0.00316 µM
[2] = second compound 0.1 µM, first compound 0.01 µM
[3] = second compound 0.1 µM, first compound 0.0316 µM
[4] = second compound 0.1 µM, first compound 0.1 µM
[5] = second compound 0.316 µM, first compound 0.00316 µM
[6] = second compound 0.316 µM, first compound 0.01 µM
[7] = second compound 0.316 µM, first compound 0.0316 µM
[8] = second compound 0.316 µM, first compound 0.1 µM
[9] = second compound 1 µM, first compound 0.00316 µM
[10] = second compound 1 µM, first compound 0.01 µM
[11] = second compound 1 µM, first compound 0.0316 µM
[12] = second compound 1 µM, first compound 0.1 µM
[13] = second compound 3.16 µM, first compound 0.00316 µM
[14] = second compound 3.16 µM, first compound 0.01 µM
[15] = second compound 3.16 µM, first compound 0.0316 µM
[16] = second compound 3.16 µM, first compound 0.1 µM
[17] = second compound 10 µM, first compound 0.00316 µM
[18] = second compound 10 µM, first compound 0.01 µM
[19] = second compound 10 µM, first compound 0.0316 µM
[20] = second compound 10 µM, first compound 0.1 µM
[21] = second compound 0.1 µM, first compound 0.316 µM
[22] = second compound 0.1 µM, first compound 1 µM
[23] = second compound 0.1 µM, first compound 3.16 µM
[24] = second compound 0.1 µM, first compound 10 µM
[25] = second compound 0.316 µM, first compound 0.316 µM
[26] = second compound 0.316 µM, first compound 1 µM
[27] = second compound 0.316 µM, first compound 3.16 µM
[28] = second compound 0.316 µM, first compound 10 µM
[29] = second compound 1 µM, first compound 0.316 µM
[30] = second compound 1 µM, first compound 1 µM
[31] = second compound 1 µM, first compound 3.16 µM
[32] = second compound 1 µM, first compound 10 µM
[33] = second compound 3.16 µM, first compound 0.316 µM
[34] = second compound 3.16 µM, first compound 1 µM
[35] = second compound 3.16 µM, first compound 3.16 µM
[36] = second compound 3.16 µM, first compound 10 µM
[37] = second compound 10 µM, first compound 0.316 µM
[38] = second compound 10 µM, first compound 1 µM
[39] = second compound 10 µM, first compound 3.16 µM
[40] = second compound 10 µM, first compound 10 µM
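Further: spheroids exposed to compounds for seven days.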

IC50 (second compound 0.1 µM) [nM] | IC50 (second compound 0.316 µM) [nM] | IC50 (second compound 1 µM) [nM] | IC50 (second compound 3.16 µM) [nM] | IC50 (second compound 10 µM) [nM] | SMILES | viability, T/C [3] [%] | viability, T/C [4] [%] | viability, T/C [7] [%] | viability, T/C [8] [%] | viability, T/C [11] [%] | viability, T/C [12] [%] | viability, T/C [15] [%] | viability, T/C [16] [%] | viability, T/C [19] [%] | viability, T/C [20] [%] | viability, T/C [21] [%] | viability, T/C [22] [%] | viability, T/C [25] [%] | viability, T/C [26] [%] | viability, T/C [29] [%] | further results
11.4 | 11.7 | 10.7 | 7.84 | 8.12 | CC[C@@]1(O)C(=O)OCc2c1cc1n(c2=O)Cc2cc3c(CN(C)C)c(O)ccc3nc2-1 + CC(CO)NC(=O)c1cc(-c2ccc(Cl)cc2)nn(-c2cnn(C)c2)c1=O | 8.77 | 4.56 | 7.83 | 5.61 | 10 | 6.33 | 10.9 | 4.27 | 10 | 7.97 | – | – | – | – | – | viability, T/C (second compound 0.1 µM, first compound 0.000316 µM): 104%; viability, T/C (second compound 0.1 µM, first compound 0.001 µM): 107%; viability, T/C [1]: 87.9%; viability, T/C [2]: 58.3%; viability, T/C (second compound 0.316 µM, first compound 0.000316 µM): 92.6%; viability, T/C (second compound 0.316 µM, first compound 0.001 µM): 94.5%; viability, T/C [5]: 87.9%; viability, T/C [6]: 57%; viability, T/C (second compound 1 µM, first compound 0.000316 µM): 110%; viability, T/C (second compound 1 µM, first compound 0.001 µM): 107%; viability, T/C [9]: 92.8%; viability, T/C [10]: 54.5%; viability, T/C (second compound 3.16 µM, first compound 0.000316 µM): 117%; viability, T/C (second compound 3.16 µM, first compound 0.001 µM): 106%; viability, T/C [13]: 81.4%; viability, T/C [14]: 43%; viability, T/C (second compound 10 µM, first compound 0.000316 µM): 89.4%; viability, T/C (second compound 10 µM, first compound 0.001 µM): 93%; viability, T/C [17]: 75.1%; viability, T/C [18]: 46.2%
771 | 694 | 671 | 490 | 310 | COc1cc(C2c3cc4c(cc3C(OC3OC5COC(C)OC5C(O)C3O)C3COC(=O)C23)OCO4)cc(OC)c1O (stereo not given) + CC(CO)NC(=O)c1cc(-c2ccc(Cl)cc2)nn(-c2cnn(C)c2)c1=O | 102 | 106 | 96.5 | 89.2 | 101 | 103 | 110 | 97.6 | 91.5 | 89.1 | 85.9 | 39.8 | 74.8 | 39.9 | 81.6 | viability, T/C [23]: 10.2%; viability, T/C [24]: 7.1%; viability, T/C [27]: 9.03%; viability, T/C [28]: 7.53%; viability, T/C [30]: 33.3%; viability, T/C [31]: 10.9%; viability, T/C [32]: 8.44%; viability, T/C [33]: 68.4%; viability, T/C [34]: 20.8%; viability, T/C [35]: 12.2%; viability, T/C [36]: 7.27%; viability, T/C [37]: 48.7%; viability, T/C [38]: 17.7%; viability, T/C [39]: 13.8%; viability, T/C [40]: 9.69%
< 31.6 | < 31.6 | < 31.6 | < 31.6 | < 31.6 | COc1cccc2c1C(=O)c1c(O)c3c(c(O)c1C2=O)CC(O)(C(=O)CO)CC3OC1CC(N)C(O)C(C)O1 (stereo not given) + CC(CO)NC(=O)c1cc(-c2ccc(Cl)cc2)nn(-c2cnn(C)c2)c1=O | 26.3 | 15.5 | 21.1 | 14.9 | 24.6 | 14.6 | 21.3 | 21.2 | 15.4 | 19.3 | 6.77 | 0.48 | 7.09 | 0.26 | 6.76 | viability, T/C [23]: 0.93%; viability, T/C [24]: 0.78%; viability, T/C [27]: 1.12%; viability, T/C [28]: 0.78%; viability, T/C [30]: 0.2%; viability, T/C [31]: 1.11%; viability, T/C [32]: 1.04%; viability, T/C [33]: 3.93%; viability, T/C [34]: 0.22%; viability, T/C [35]: 0.98%; viability, T/C [36]: 0.67%; viability, T/C [37]: 3.22%; viability, T/C [38]: 0.46%; viability, T/C [39]: 0.54%; viability, T/C [40]: 0.83%
793 | 892 | 878 | > 1000 | > 1000 | Nc1ncn(C2CC(O)C(CO)O2)c(=O)n1 (stereo not given) + CC(CO)NC(=O)c1cc(-c2ccc(Cl)cc2)nn(-c2cnn(C)c2)c1=O | 85.5 | 89 | 91.5 | 101 | 90.5 | 92.9 | 82.7 | 78.8 | 84.1 | 79.7 | 76.3 | 43 | 80.8 | 46.6 | 77.7 | viability, T/C [1]: 94.9%; viability, T/C [2]: 94.5%; viability, T/C [5]: 81.8%; viability, T/C [6]: 88.4%; viability, T/C [9]: 95.4%; viability, T/C [10]: 104%; viability, T/C [30]: 46%; viability, T/C [13]: 97.8%; viability, T/C [14]: 95%; viability, T/C [33]: 88.9%; viability, T/C [34]: 56.4%; viability, T/C [17]: 88.9%; viability, T/C [18]: 92.5%; viability, T/C [37]: 82.3%; viability, T/C [38]: 62.1%

— PubChem BioAssay AID1919006 (Molecular Pharmacology Branch, DTP, NCI, 2023)
